# Laboratory results taken from patent US20160109352A1, “METHODS AND APPARATUS FOR HIGH-THROUGHPUT LABEL-FREE CELL ASSAY” (INDUSTRY-ACADEMIC COOPERATION FOUNDATION YONSEI UNIVERSITY, priority 2014, published 2016).
# System: cells
# Assay: label-free cell assay by optical interference phase microscope
# Format: cell-based
# Conditions: for change in measurement values (phase) depending on concentration, by time: dosed in different concentration, measured by time (FIG. 5)
# Excerpt: FIG. 4 is a view showing an example of an image of cells photographed by an optical interference phase microscope beneath the transparent medium of the high-throughput label-free cell assay system.
# FIG. 5 is a view showing an example of a measurement value by time in the high-throughput label-free cell assay system in a case that picolinic acid and histamine are separately given to cells in different concentration.
Structure (SMILES),"change in measurement values (phase) depending on concentration, by time","number of observed cells in optical interference phase image (half an hour after dosing, untreated cells showed no change after 30 minutes)"
NCCc1c[nH]cn1 [histamine],remarkable changes in measurement values depending on concentration were observed,
O=C(O)c1ccccn1 [picolinic acid],remarkable changes in measurement values depending on concentration were observed,remarkably reduced
